Results on 26 compounds are retold here after PubChem BioAssay AID330 (DTP/NCI, 2004).

This assay deals with P388 leukemia ip, CD2F1 mice, survival T/C. Kind of assay: NCI In Vivo Anticancer Drug Screen. Data for tumor model P388 Leukemia (intraperitoneal) in CD2F1 (CDF1) mice. The note with it: endpoint: median survival time, higher = longer survival. A digest of the protocol: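 Mice carrying the transplanted tumor received test compound or vehicle. Survival was recorded in each group, and the value is the treated-group measurement divided by that of the vehicle-treated control group.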

Where [1] appears, read: dose: 50.0 mg/kg/injection, schedule: Q01DX009 (ip), vehicle: saline with Tween-80.
Where [2] appears, read: dose: 100.0 mg/kg/injection, schedule: Q01DX009 (ip), vehicle: saline with Tween-80.
Where [3] appears, read: dose: 200.0 mg/kg/injection, schedule: Q01DX009 (ip), vehicle: saline with Tween-80.
Setting [4] is: dose: 12.5 mg/kg/injection, schedule: Q01DX005 (ip), vehicle: saline with Tween-80.
Where [5] appears, read: dose: 25.0 mg/kg/injection, schedule: Q01DX005 (ip), vehicle: saline with Tween-80.
Where [6] appears, read: dose: 50.0 mg/kg/injection, schedule: Q01DX005 (ip), vehicle: saline with Tween-80.
Setting [7] is: dose: 100.0 mg/kg/injection, schedule: Q01DX001 (ip), vehicle: Klucel (hydroxypropylcellulose) (HPC).
[8] abbreviates: dose: 200.0 mg/kg/injection, schedule: Q01DX001 (ip), vehicle: Klucel (hydroxypropylcellulose) (HPC).
Setting [9] is: dose: 400.0 mg/kg/injection, schedule: Q01DX001 (ip), vehicle: Klucel (hydroxypropylcellulose) (HPC).
Where [10] appears, read: dose: 60.0 mg/kg/injection, schedule: Q01DX005 (ip), vehicle: saline with Tween-80.
[11] abbreviates: dose: 120.0 mg/kg/injection, schedule: Q01DX005 (ip), vehicle: saline with Tween-80.
Setting [12] is: dose: 240.0 mg/kg/injection, schedule: Q01DX005 (ip), vehicle: saline with Tween-80.
[13] abbreviates: dose: 50.0 mg/kg/injection, schedule: Q01DX009 (ip), vehicle: saline.
Where [14] appears, read: dose: 100.0 mg/kg/injection, schedule: Q01DX009 (ip), vehicle: saline.
The mark [15] stands for this setting: dose: 100.0 mg/kg/injection, schedule: Q01DX005 (ip), vehicle: saline with Tween-80.
The mark [16] stands for this setting: dose: 200.0 mg/kg/injection, schedule: Q01DX005 (ip), vehicle: saline with Tween-80.
Where [17] appears, read: dose: 100.0 mg/kg/injection, schedule: Q01DX001 (ip), vehicle: saline with Tween-80.
The mark [18] stands for this setting: dose: 200.0 mg/kg/injection, schedule: Q01DX001 (ip), vehicle: saline with Tween-80.
The mark [19] stands for this setting: dose: 400.0 mg/kg/injection, schedule: Q01DX001 (ip), vehicle: saline with Tween-80.

Several values for one entry are separate records, joined by “and”; a condition that tells them apart may be missing. Equal entries are not always repeated. Toxic doses and inconclusive results are not listed.

Turning to `FC(F)(F)C(F)(F)c1nc2nc(Cl)c(Cl)nc2[nH]1`, the T/C runs as follows: (dose: 50.0 mg/kg/injection, schedule: Q04DX003 (ip), vehicle: other) 100 % of control; (dose: 100.0 mg/kg/injection, schedule: Q04DX003 (ip), vehicle: other) 118 % of control; (dose: 200.0 mg/kg/injection, schedule: Q04DX003 (ip), vehicle: other) 113 % of control.

For the compound `CCN(CC)P(=O)(c1cccn1C)c1cccn1C`, the T/C by setting is: under setting [1], 100 % of control; under setting [2], 102 % of control; under setting [3], 97 % of control.

Take `CCN(CC)C1=C(C)C2C(C)(C)N=NC12C(=O)OC` (stereo not given): the T/C reads like this: (dose: 50.0 mg/kg/injection, schedule: Q01DX005 (ip), vehicle: saline) 98 % of control; (dose: 100.0 mg/kg/injection, schedule: Q01DX005 (ip), vehicle: saline) 102 % of control; (dose: 200.0 mg/kg/injection, schedule: Q01DX005 (ip), vehicle: saline) 116 % of control.

Regarding `CCC1(c2ccccc2)C(=O)N(C)C(=O)N(CCCl)C1=O` (stereo not given), the T/C runs as follows: (dose: 50.0 mg/kg/injection, schedule: Q01DX009 (ip), vehicle: Klucel (hydroxypropylcellulose) (HPC)) 96 % of control; (dose: 100.0 mg/kg/injection, schedule: Q01DX009 (ip), vehicle: Klucel (hydroxypropylcellulose) (HPC)) 98 % of control; (dose: 200.0 mg/kg/injection, schedule: Q01DX009 (ip), vehicle: Klucel (hydroxypropylcellulose) (HPC)) 93 % of control.

On to `CC1[C@@H]2CC=C3[C@H]4CCC5Cc6nc7c(nc6C[C@@]5(C)C4CC(=O)[C@]32CO[C@]12OC(C)(C)CC2O)CC1CC[C@@H]2C3=C[C@H]4O[C@@]5(O[C@@](C)(CO)C[C@@H]5O)C(C)[C@@]4(O)[C@]3(C)[C@@H](O)CC2[C@]1(C)C7` (stereo not given in full), for which the T/C is 86 % of control (dose: 0.08 mg/kg/injection, schedule: Q01DX009 (ip), vehicle: saline + alcohol); 115 % of control and 117 % of control (dose: 10.0 micrograms/kg/injection, schedule: Q01DX005 (ip), vehicle: saline + alcohol); 114 % of control and 115 % of control (dose: 20.0 micrograms/kg/injection, schedule: Q01DX005 (ip), vehicle: saline + alcohol); 123 % of control (dose: 80.0 micrograms/kg/injection, schedule: Q01DX005 (ip), vehicle: saline + alcohol).

For `COc1ccc(OC)c2c(Cl)ccnc12`, the T/C under setting [4] is 99 % of control, the T/C under setting [5] is 103 % of control and the T/C under setting [6] is 97 % of control.

Take `CCCCCCCCCCS(=O)CC(CO)NC(=O)/C=C/c1c(C)[nH]c(=O)[nH]c1=O` (stereo not given): the T/C runs as follows: (dose: 0.78 mg/kg/injection, schedule: Q01DX009 (ip), vehicle: other) 107 % of control and 116 % of control; (dose: 1.56 mg/kg/injection, schedule: Q01DX009 (ip), vehicle: other) 115 % of control; (dose: 6.25 mg/kg/injection, schedule: Q01DX009 (ip), vehicle: other) 153 % of control.

Turning to `O=C1c2ccccc2-c2c1c1ccccc1n2S(=O)(=O)c1ccccc1`, the T/C is, setting by setting: under setting [7], 103 % of control; under setting [8], 103 % of control; under setting [9], 101 % of control.

In the case of `COc1ccc(C(O)OC2CC3C=CC2C3)cc1` (stereo not given), the T/C by setting is: (dose: 12.5 mg/kg/injection, schedule: Q01DX009 (ip), vehicle: other) 114 % of control; (dose: 25.0 mg/kg/injection, schedule: Q01DX009 (ip), vehicle: other) 110 % of control; (dose: 50.0 mg/kg/injection, schedule: Q01DX009 (ip), vehicle: other) 114 % of control; (dose: 100.0 mg/kg/injection, schedule: Q01DX009 (ip), vehicle: other) 114 % of control; (dose: 200.0 mg/kg/injection, schedule: Q01DX009 (ip), vehicle: other) 111 % of control.

Regarding `C=C(C)C(=O)N(C)C(C)C(=O)OC1CC(=O)N(C)c2cc(cc(OC)c2Cl)C(OC)C(C)=C/C=C/C(OC)C2(O)CC(OC(=O)N2)C(C)C2OC12C` (stereo not given), where the note is “dose: 8.0 micrograms/kg/injection, schedule: Q01DX009 (ip), vehicle: saline”, the T/C was 172 % of control.

Turning to `O=C(Nc1cc(-c2ccccc2)[nH]n1)c1ccc(Cl)cc1`, the T/C by setting is: under setting [10], 102 % of control; under setting [11], 93 % of control; under setting [12], 93 % of control.

In the case of `OC(/C=C/CC(O)(C(F)(F)F)C(F)(F)F)(C(F)(F)F)C(F)(F)F`, the T/C is 100 % of control under setting [13] and 98 % of control under setting [14].

Consider `CC1=CC2C(c3ccccc3)Nc3ccccc3N2C1=O` (stereo not given), for which the T/C was 94 % of control under setting [13]; 100 % of control under setting [14]; 94 % of control (dose: 200.0 mg/kg/injection, schedule: Q01DX009 (ip), vehicle: saline).

On to `S=C(SCc1ccccc1)N1CCN(C(=S)SCc2ccccc2)CC1`, for which the T/C was 89 % of control under setting [1], 91 % of control under setting [2] and 91 % of control under setting [3].

In the case of `C1=CC(=NN=P(c2ccccc2)(c2ccccc2)c2ccccc2)C=C1`, the T/C was 89 % of control under setting [1], 102 % of control under setting [2] and 97 % of control under setting [3].

Regarding `C=CCSc1nc2ccc(NC(C)=O)cc2s1`, the T/C runs as follows: (dose: 6.25 mg/kg/injection, schedule: Q01DX009 (ip), vehicle: Klucel (hydroxypropylcellulose) (HPC)) 104 % of control; (dose: 12.5 mg/kg/injection, schedule: Q01DX009 (ip), vehicle: Klucel (hydroxypropylcellulose) (HPC)) 108 % of control; (dose: 25.0 mg/kg/injection, schedule: Q01DX009 (ip), vehicle: Klucel (hydroxypropylcellulose) (HPC)) 94 % of control.

As to `COC1=C(OC)C(=O)C([Si](C)(C)C)=C(CO)C1=O`, the T/C is 103 % of control (dose: 7.5 mg/kg/injection, schedule: Q01DX005 (ip), vehicle: saline with Tween-80) and 105 % of control (dose: 15.0 mg/kg/injection, schedule: Q01DX005 (ip), vehicle: saline with Tween-80).

On to `COc1ccc(-n2c(-c3ccc(Cl)cc3)csc2=N)c(OC)c1`, for which the T/C by setting is: (dose: 25.0 mg/kg/injection, schedule: Q01DX009 (ip), vehicle: saline with Tween-80) 97 % of control; under setting [1], 106 % of control; under setting [13], 114 % of control; under setting [2], 100 % of control; under setting [14], 109 % of control.

As to `CCOc1cc2c(cc1C/C=C/c1ccccc1)OCO2`, the T/C runs as follows: under setting [6], 100 % of control; under setting [15], 110 % of control; under setting [16], 101 % of control.

Consider `O=C(/C=C/c1ccccc1Cl)c1ccccc1`, for which the T/C is, setting by setting: under setting [1], 112 % of control; under setting [2], 110 % of control; under setting [3], 114 % of control.

Regarding `S=c1nc[nH]c2ccc3[nH]ncc3c12`, the T/C by setting is: (dose: 6.25 mg/kg/injection, schedule: Q01DX005 (ip), vehicle: saline with Tween-80) 93 % of control; under setting [4], 90 % of control; under setting [5], 92 % of control.

On to `Cn1cc(Cl)c2ccccc2c1=O`, for which the T/C under setting [6] was 101 % of control, the T/C under setting [15] is 99 % of control and the T/C under setting [16] was 100 % of control.

`CCCCCCCCC1SC1CCCCCCCCOC(=O)CCCCCCCC1SC1CCCCCCCC` (stereo not given): the T/C is 95 % of control under setting [17], 95 % of control under setting [18] and 95 % of control under setting [19].

For `Cc1ccc(-c2nc3n(c2/C=N/NS(=O)(=O)c2ccc(C)cc2)CCS3)cc1`, the T/C reads like this: under setting [7], 100 % of control; under setting [8], 93 % of control; under setting [9], 91 % of control.

On to `O=C(Nc1cccc(Cl)c1Cl)c1cc(/C=C/c2ccc([N+](=O)[O-])cc2)on1`, for which the T/C by setting is: (dose: 30.0 mg/kg/injection, schedule: Q01DX005 (ip), vehicle: saline with Tween-80) 95 % of control; under setting [10], 91 % of control and 96 % of control; under setting [11], 87 % of control and 95 % of control; under setting [12], 97 % of control.

Regarding `CS(C)(=O)=Nc1ccc(F)cc1`, the T/C under setting [17] is 99 % of control, the T/C under setting [18] is 99 % of control and the T/C under setting [19] is 99 % of control.
